These results are taken from US12433952B2, “Antibody-drug conjugates targeting folate receptor alpha and methods of use” (ZYMEWORKS BC INC., priority 2022, dated 2025).

Read-outs that look alike come from different tables or passages of the source.

Assay in all cases: In vitro cytotoxicity of camptothecin analogues (CellTiter-Glo)
Type in all cases: cell-based
On the technique in general: Cellular ATP, detected with luciferase, serves as a proxy for viable cell number.

The test system of one test is ZR-75-1 (breast cancer). The note with it: Homo sapiens, ZR-75-1, 120 h, read-out: pIC50 ZR-75 (converted). As to the method:
(§1) Cytotoxicity of the camptothecin analogues was assessed in vitro as follows.
(§2) In vitro potency was assessed on multiple cancer cell lines: SK-BR-3 (breast cancer), SKOV-3 (ovarian cancer), Calu-3 (lung cancer), ZR-75-1 (breast cancer) and MDA-MB-468 (breast cancer). Serial dilutions of camptothecin analogues were prepared in RPMI 1640+10% FBS, and 20 μL of each dilution was added to 384-well plates. Cells cultured in log-phase growth were detached by brief incubation in 0.05% Trypsin and resuspended in respective culturing media at 20,000 cells/mL (with the exception of ZR-75 cells, which were resuspended at 10,000 cells/mL). 50 μL of cell suspension was then added to the plates containing test articles. Cells were incubated with test articles for 4 d at 37° C. (with the exception of ZR-75 cells, which were incubated for 5 d). Growth inhibition was assessed by CellTiter-Glo® (Promega Corporation, Madison, WI) and luminescence was measured on a plate reader. IC50 values were determined by GraphPad Prism (GraphPad Software, San Diego CA).

A further test concerns SK-BR-3 (breast cancer). The note with it: Homo sapiens, SK-BR-3, 96 h, read-out: pIC50 SKBR-3 (converted). The method, then: as §1, §2
A further test has as its system SKOV-3 (ovarian cancer). The note with it: Homo sapiens, SK-OV-3, 96 h, read-out: pIC50 SKOV-3 (converted). The method, then: as §1, §2
For test [1], the system named is MDA-MB-468 (breast cancer). The note with it: Homo sapiens, MDA-MB-468, 96 h, read-out: pIC50 MDA-MB-468 (converted). The method, then: as §1, §2
The next test deals with Calu-3 (lung cancer). The note with it: Homo sapiens, Calu-3, 96 h, read-out: pIC50 Calu-3 (converted). The method, then: as §1, §2

In the case of `CC[C@@]1(O)C(=O)OCc2c1cc1n(c2=O)Cc2c-1nc1cc(F)c(C)cc1c2CN1CCOCC1` [Compound 100, (S)-4-ethyl-8-fluoro-4-hydroxy-9-methyl-11-(morpholinomethyl)-1,12-dihydro-14H-pyrano[3′,4′:6,7]indolizino[1,2-b]quinoline-3,14(4H)-dione], the IC50 with ZR-75-1 (breast cancer) (5 d incubation) was 1.23 nM; in the test on SK-BR-3 (breast cancer) (4 d incubation) it was 1.1 nM; in the test on SKOV-3 (ovarian cancer) (4 d incubation) it was 2.29 nM; in test [1] (4 d incubation) it was 2.51 nM; with Calu-3 (lung cancer) (4 d incubation) it was 1.12 nM.
Take `CC[C@@]1(O)C(=O)OCc2c1cc1n(c2=O)Cc2c-1nc1cc(F)c(OC)cc1c2CN1CCOCC1` [Compound 101, (S)-4-ethyl-8-fluoro-4-hydroxy-9-methoxy-11-(morpholinomethyl)-1,12-dihydro-14H-pyrano[3′,4′:6,7]indolizino[1,2-b]quinoline-3,14(4H)-dione]: the IC50 in the test with ZR-75-1 (breast cancer) (5 d incubation) was 1.07 nM; in the test with SK-BR-3 (breast cancer) (4 d incubation), 1.07 nM; with SKOV-3 (ovarian cancer) (4 d incubation) it was 1.58 nM; in test [1] (4 d incubation) it was 2.57 nM.
For `CC[C@@]1(O)C(=O)OCc2c1cc1n(c2=O)Cc2c-1nc1cc(F)c(C)cc1c2CN1CCN(S(=O)(=O)c2ccccc2)CC1` [Compound 102, (S)-4-ethyl-8-fluoro-4-hydroxy-9-methyl-11-((4-(phenylsulfonyl)piperazin-1-yl)methyl)-1,12-dihydro-14H-pyrano[3′,4′:6,7]indolizino[1,2-b]quinoline-3,14(4H)-dione], the IC50 with ZR-75-1 (breast cancer) (5 d incubation) is 0.794 nM; with SK-BR-3 (breast cancer) (4 d incubation) it was 0.933 nM; in the test on SKOV-3 (ovarian cancer) (4 d incubation), 2.14 nM; in test [1] (4 d incubation) it was 2.34 nM.
Regarding `CC[C@@]1(O)C(=O)OCc2c1cc1n(c2=O)Cc2c-1nc1cc(F)c(OC)cc1c2CN1CCN(S(=O)(=O)c2ccccc2)CC1` [Compound 103, (S)-4-ethyl-8-fluoro-4-hydroxy-9-methoxy-11-((4-(phenylsulfonyl)piperazin-1-yl)methyl)-1,12-dihydro-14H-pyrano[3′,4′:6,7]indolizino[1,2-b]quinoline-3,14(4H)-dione], the IC50 was 2.4 nM in the test on ZR-75-1 (breast cancer) (5 d incubation); 1.7 nM in the test with SK-BR-3 (breast cancer) (4 d incubation); 4.37 nM in the test with SKOV-3 (ovarian cancer) (4 d incubation); 4.68 nM in test [1] (4 d incubation); 2.34 nM with Calu-3 (lung cancer) (4 d incubation).
Turning to `CC[C@@]1(O)C(=O)OCc2c1cc1n(c2=O)Cc2c-1nc1cc(F)c(C)cc1c2CN1CCN(S(=O)(=O)c2ccc(N)cc2)CC1` [Compound 104, (S)-11-((4-((4-aminophenyl)sulfonyl)piperazin-1-yl)methyl)-4-ethyl-8-fluoro-4-hydroxy-9-methyl-1,12-dihydro-14H-pyrano[3′,4′:6,7]indolizino[1,2-b]quinoline-3,14(4H)-dione], the IC50 in the test on ZR-75-1 (breast cancer) (5 d incubation) was 2.57 nM; with SK-BR-3 (breast cancer) (4 d incubation) it was 2.69 nM; with SKOV-3 (ovarian cancer) (4 d incubation) it was 7.76 nM; in test [1] (4 d incubation), 2.63 nM; with Calu-3 (lung cancer) (4 d incubation), 5.25 nM.
Take `CC[C@@]1(O)C(=O)OCc2c1cc1n(c2=O)Cc2c-1nc1cc(F)c(OC)cc1c2CN1CCN(S(=O)(=O)c2ccc(N)cc2)CC1` [Compound 105, (S)-11-((4-((4-aminophenyl)sulfonyl)piperazin-1-yl)methyl)-4-ethyl-8-fluoro-4-hydroxy-9-methoxy-1,12-dihydro-14H-pyrano[3′,4′:6,7]indolizino[1,2-b]quinoline-3,14(4H)-dione]: the IC50 was 3.09 nM with ZR-75-1 (breast cancer) (5 d incubation); 3.63 nM with SK-BR-3 (breast cancer) (4 d incubation); 10.7 nM in the test with SKOV-3 (ovarian cancer) (4 d incubation); 2.75 nM in test [1] (4 d incubation); 4.47 nM in the test on Calu-3 (lung cancer) (4 d incubation).
Consider `CC[C@@]1(O)C(=O)OCc2c1cc1n(c2=O)Cc2c-1nc1cc(F)c(OC)cc1c2CN1CCN(c2ccc(N)cc2)CC1` [Compound 109, (S)-11-((4-(4-aminophenyl)piperazin-1-yl)methyl)-4-ethyl-8-fluoro-4-hydroxy-9-methoxy-1,12-dihydro-14H-pyrano[3′,4′:6,7]indolizino[1,2-b]quinoline-3,14(4H)-dione], for which the IC50 is 5.01 nM with ZR-75-1 (breast cancer) (5 d incubation), 5.75 nM with SK-BR-3 (breast cancer) (4 d incubation), 7.08 nM in the test with SKOV-3 (ovarian cancer) (4 d incubation) and 8.13 nM in test [1] (4 d incubation).
With `CC[C@@]1(O)C(=O)OCc2c1cc1n(c2=O)Cc2c-1nc1cc(F)c(C)cc1c2CNS(=O)(=O)Cc1ccc([N+](=O)[O-])cc1` [Compound 124, (S)—N-((4-ethyl-8-fluoro-4-hydroxy-9-methyl-3,14-dioxo-3,4,12,14-tetrahydro-1H-pyrano[3′,4′:6,7]indolizino[1,2-b]quinolin-11-yl)methyl)-1-(4-nitrophenyl) methanesulfonamide], the IC50 is 2.29 nM with ZR-75-1 (breast cancer) (5 d incubation), 1.2 nM in the test on SK-BR-3 (breast cancer) (4 d incubation), 3.47 nM in test [1] (4 d incubation) and 1.7 nM in the test with Calu-3 (lung cancer) (4 d incubation).
Take `CC[C@@]1(O)C(=O)OCc2c1cc1n(c2=O)Cc2c-1nc1cc(F)c(OC)cc1c2CNS(=O)(=O)c1ccc(N)cc1` [Compound 128, (S)-4-amino-N-((4-ethyl-8-fluoro-4-hydroxy-9-methoxy-3,14-dioxo-3,4,12,14-tetrahydro-1H-pyrano[3′,4′:6,7]indolizino[1,2-b]quinolin-11-yl)methyl)benzenesulfonamide]: the IC50 was 4.27 nM in the test on ZR-75-1 (breast cancer), 5.25 nM with SK-BR-3 (breast cancer), 18.2 nM in the test on SKOV-3 (ovarian cancer) and 8.32 nM in test [1].
Turning to `CC[C@@]1(O)C(=O)OCc2c1cc1n(c2=O)Cc2c-1nc1cc(F)c(C)cc1c2CNS(N)(=O)=O` [Compound 131, (S)—N-((4-ethyl-8-fluoro-4-hydroxy-9-methyl-3,14-dioxo-3,4,12,14-tetrahydro-1H-pyrano[3′,4′:6,7]indolizino[1,2-b]quinolin-11-yl)methyl)methanesulfamide], the IC50 is 0.955 nM with ZR-75-1 (breast cancer), 1.05 nM in the test on SK-BR-3 (breast cancer), 9.12 nM in test [1] and 9.12 nM in the test with Calu-3 (lung cancer).
As for `CC[C@@]1(O)C(=O)OCc2c1cc1n(c2=O)Cc2c-1nc1cc(F)c(OC)cc1c2CNC(=O)NCCO` [Compound 137, (S)-1-((4-ethyl-8-fluoro-4-hydroxy-9-methoxy-3,14-dioxo-3,4,12,14-tetrahydro-1H-pyrano[3′,4′:6,7]indolizino[1,2-b]quinolin-11-yl)methyl)-3-(2-hydroxyethyl)urea], the IC50 with ZR-75-1 (breast cancer) (5 d incubation) was 18.6 nM; in the test on SK-BR-3 (breast cancer) (4 d incubation), 17 nM; in test [1] (4 d incubation) it was 28.2 nM; with Calu-3 (lung cancer) (4 d incubation) it was 63.1 nM.
Turning to `CC[C@@]1(O)C(=O)OCc2c1cc1n(c2=O)Cc2c-1nc1cc(F)c(N)cc1c2CN1CCCCC1` [Compound 148, (S)-9-amino-4-ethyl-8-fluoro-4-hydroxy-11-(piperidin-1-ylmethyl)-1,12-dihydro-14H-pyrano[3′,4′:6,7]indolizino[1,2-b]quinoline-3,14(4H)-dione], the IC50 with ZR-75-1 (breast cancer) (5 d incubation) was 0.219 nM; with SK-BR-3 (breast cancer) (4 d incubation) it was 0.324 nM; in test [1] (4 d incubation), 0.204 nM; in the test on Calu-3 (lung cancer) (4 d incubation), 0.204 nM.
Regarding `CC[C@@]1(O)C(=O)OCc2c1cc1n(c2=O)Cc2c-1nc1cc(F)c(N)cc1c2CNS(=O)(=O)CCO` [Compound 150, (S)—N-((9-amino-4-ethyl-8-fluoro-4-hydroxy-3,14-dioxo-3,4,12,14-tetrahydro-1H-pyrano[3′,4′:6,7]indolizino[1,2-b]quinolin-11-yl)methyl)-2-hydroxyethane-1-sulfonamide], the IC50 with ZR-75-1 (breast cancer) (5 d incubation) was 6.46 nM; in the test on SK-BR-3 (breast cancer) (4 d incubation), 7.94 nM; in the test on SKOV-3 (ovarian cancer) (4 d incubation) it was 63.1 nM.
